# Measurements reported in US20090105149A1, “Compounds comprising lpa” (ENKAM PHARMACEUTICALS A/S, priority 2003, published 2009).
# Marks after values point to notes of the source that are not given here.
# How the values were obtained:
# [1] = test system: cerebellar granule neurons (CGN); assay: Neurite outgrowth, cerebellar granule neurons; format: cell-based, rat; conditions: 24 h
# Description: The cultures were subsequently immunostained for tyrosine hydroxylase. Hippocampal neurons and CGN were plated at a density of 10,000 cells/cm^2 on 8-well permanox chamber slides and incubated for 24 hours in the presence of various concentrations of FGLd. Subsequently the neurons were immunostained for GAP-43. Results from at least five independent experiments for each neuronal culture are shown as percentage ±SEM with the untreated controls set at 100%. *p<0.05, **p<0.01, ***p<0.001 when compared to the controls.
# Peptide solutions without or with inhibitors of various signal transduction pathways were added to a total volume of 300 μl/cm^2, and the slides were incubated at 37° C. After 24 hours, the neurons were fixed with 4% (v/v) formaldehyde for 20 minutes and thereafter immunostained using primary rabbit antibodies against GAP-43 and Alexa Fluor secondary goat anti-rabbit antibodies. Images of at least 200 neurons for each group in each individual experiment were obtained systematically by using computer assisted fluorescence microscopy as previously described (Rønn et al., 2000 op. cit.). Briefly, a Nikon Diaphot inverted microscope with a Nikon Plan 20× objective (Nikon, Tokyo, Japan) coupled to a video camera (Grundig Electronics, Germany) was used for recordings. The same software package as described above for the dopaminergic neurite outgrowth assay was used to process the recorded images.
# hippocampal neurons = assay: FM 1-43 destaining (presynaptic vesicle turnover) in hippocampal neurons; format: cell-based, rat
# Description: The values were compared using an unpaired t-test. *p=0.04 (1 h) and **p=0.0032 (48 h). FGLcontrol is a control peptide consisting the sequence […] (SEQ ID NO: 147).
# The effects of FGLd on vesicle turnover was estimated in primary cultures of hippocampal neurons from embryonic rats (E19). The cultures were prepared as above. Following 13-16 days in vitro, FGLd was added to the cultures and incubated for 1, 24 or 48 hours. After 48 hours of incubation, the FGFR-inhibitor (SU 5402) was added simultaneously with FGLd to some of the cultures.
# After treatment with FGLd the neurons were labeled with the fluorescent membrane probe FM 1-43 as described by Kiryushko et al (2003) J Biol. Chem. 278:12325-34. The rate of FM 1-43 release (destaining of cells) evoked by depolarisation with 90 mM potassium was then evaluated by a time-lapse image acquisition using the Radiance 2000 scanning system and a Nikon eclipse TE200 confocal microscopy.
# [2] = test system: organotypic hippocampal neuronal slice cultures (OHSC); assay: OGD, metabolic activity (MTS) in organotypic hippocampal slice cultures; format: cell-based, rat
# Source text: In the present study it was investigated the effect of the FGL peptide on synaptic plasticity, neuronal function and vulnerability following oxygen and glucose deprivation (OGD) in organotypic hippocampal neuronal slice cultures (OHSC) from 7-day-old Wistar rats according to method of Stoppini et al. (1991) Neurosci Methods. 37:173-82 and primary cultures of dissociated hippocampal neurons from 1-day-old rats according to method of Maar et al. (1997) J Neurosci Res. 47:163-72. Primary cell cultures were maintained for 11-12 days and OHSC for 12-14 days prior to adding FGLd.
# The primary cell cultures and OHSC were exposed to OGD for 10 and 20 minutes. Following OGD, the cultures were again supplied with oxygen and glucose and analysed at 1, 4 or 24 hour time point after introduction of OGD exposure. FGLd (or the control peptide FGLc) was added 24 hr before, immediately, or 1 hr or 24 hr after OGD. […]
# In hippocampal neuronal cultures, FM 1-43 staining was used to evaluate pre-synaptic function (described above). Cell viability in both primary cell cultures and OHSC was measured using the […] [3-(4,5-dimethylthiazol-2-yl)-2,5-diphenyltetrazolium bromide] assay according to Malich et al, (1997) Toxicology. […] In, addition, cell viability in OHSC was measured using propidium iodide (PI) staining according to Laake et al. (1999) Brain Res Brain Res Protoc. […]
# [3] = test system: rats treated with (25-35) β-amyloid fragment; assay: Neuronal density / cell death in brain sections, (25-35) β-amyloid fragment rat model; format: in vivo; conditions: days 7, 10, 13
# Description: The effect of 5.0 μg FGL per administration per rat, administered sub-occipitally on days 7, 10 and 13 after (25-35) β-amyloid (A-β) fragment-induced toxicity, on neuronal cell death in the CA3 zone of the rat hippocampus. The number of animals in the groups varied from 4 to 8.
# (§1) The number of animals in the groups varied from 4 to 8.
# as §1
# Behaviour of animals was evaluated using the Social Recognition test, the Open Field test or the Light-dark Discriminating γ-maze. On day 28-30 or day 51 after i.c.v. administration of the (25-35) β-amyloid fragment, the animals were sacrificed, and in selected studies, the brain tissue was collected, histological sections were immunostained with A-β specific antibodies and the amyloid-burden was calculated as a percentage of the A-βpositive area. In addition, the number of neurons in selected areas of brain-sections was calculated using a stereological approach.
substance,measurement,setting,value
FGLd: MAP-type dendrimer of FGL; dendrimeric tetramer of the FGL peptide (EVYVVAENQQGKSKA),Effect on Neurite Length (Percent Increase vs. Control),"[1]; CGN PND 2-4, 9 μg/mL",24%**
same,Effect on Neurite Length (Percent Increase vs. Control),"[1]; CGN PND 5-8, 3 μg/mL",30%
same,Effect on Neurite Length (Percent Increase vs. Control),"[1]; CGN PND 5-8, 9 μg/mL",93%
same,Effect on Neurite Length (Percent Increase vs. Control),"[1]; CGN PND 5-8, 10 μg/mL",37%
same,Effect on Neurite Length (Percent Increase vs. Control),"[1]; CGN PND 5-8, 25 μg/mL",79%
same,Effect on Neurite Length (Percent Increase vs. Control),"[1]; CGN PND 5-8, 27 μg/mL",121%
same,Effect on Neurite Length (Percent Increase vs. Control),"[1]; CGN PND 5-8, 50 μg/mL",179%
same,Effect on Neurite Length (Percent Increase vs. Control),"[1]; CGN PND 5-8, 100 μg/mL",96%
same,"maximal stimulation of neurite outgrowth, CGN","[1]; at 50 μg/ml, untreated control = 100%",255%
same,rate of FM 1-43 unloading,hippocampal neurons; 5 μg/ml for any time period,"Neither treatment with 5 μg/ml FGLd for any time period, nor the treatment with 20 μg/ml for 24 hours had any effect"
same,rate of FM 1-43 destaining,"hippocampal neurons; 20 μg/ml for 1 h, control 0.008",0.016 s⁻¹
same,rate of FM 1-43 destaining,hippocampal neurons; 20 μg/ml for 24 h,did not result in a significant effect
same,rate of FM 1-43 destaining,"hippocampal neurons; 20 μg/ml for 48 h, control 0.013",0.028 s⁻¹
same,"metabolic activity (MTS), treatment alone",[2]; no OGD,led to an increase in metabolic activity
same,metabolic activity (MTS) after OGD,"[2]; treated 24 hours prior to OGD, 1 h and 24 h after OGD",caused a normalization of the metabolic activity
same,neuro-histopathology evaluation of the CA3 area of hippocampus,"[3]; Study 1, sub-occipital",no significant effect
same,density of neurons in the CA3 zone of the hippocampus,"[3]; Study 2, sub-occipital 5 μg, β-amyloid only 15",22 neurons/mcm^2×10^−4
